Experimental data published in patent US20060141620A1, “System and method for forming a cardiac tissue construct” (The Regents of the University of Michigan, priority 2004, published 2006).

How the values were obtained:
[1] = system: cardioids; details: prior publication US 2004/0132184; cited from earlier work
[2] = system: cardiac tissue constructs; test: Inotropic response to ionic calcium (force vs calcium concentration of the bath); assay type: cell-based, rat; details: explanted constructs, calcium reintroduced after EGTA removal
Experimental: The effect of the addition of exogenous calcium on contractility was investigated in the constructs according to the present invention. First, CM in the bath was replaced with calcium-free DMEM (Invitrogen). Known volumes of 100 mM ethylene glycol-bis(2-aminoethylether)-N,N,N′,N′-tetraacetic acid (EGTA) were then added to the bath to bind residual stores of calcium in the constructs. At each incremental addition of EGTA, twitch stimulation was applied and the force of contraction was measured. Removal of calcium was considered to be complete when the force of contraction was not detectable and no further EGTA was added. At this point, the calcium-free DMEM in the bath was aspirated and the construct was washed 3 times with fresh calcium-free DMEM. Known volumes of 100 mM calcium were then added and stimulated contraction forces were re-evaluated with each addition. This process was repeated until there was no further increase in the active force with the addition of calcium. The relationship of calcium concentration of the bath to force of contraction was then plotted.
The pCa1/2 of mammalian cardiac tissue has been reported in the range 5.9 to 7.0 (see Bers, Excitation-Contraction Coupling and Cardiac Contractile Force, Norwell: Kluwer Academic Publishers, 2002). […] The inotropic response to external calcium is an indicator of the presence of functional calcium handling machinery.

[3] = system: cardiac tissue constructs
Experimental: Turning now to FIG. 7, the response to epinephrine was studied in four constructs according to the present invention by adding known concentrations of epinephrine to the CM, with the constructs still attached to the force transducer. […] The concentration of epinephrine was calculated based on the typical dosage given to an adult for cardiac resuscitation. The spontaneous contractility of the constructs was recorded for a period of 5 minutes after the addition of epinephrine.

Row | SMILES | response of cardioids [1] | pCa1/2 [2] | duration of rapid contraction pattern (resembling tachyarrhythmia) ([3]; 0.2 μg/ml) [s] | effect on spontaneous contractility ([3]; 0.2 μg/ml in culture bath, four constructs)
1 | [Ca+2] [calcium] | positive inotropy | 3.04 |  | 
2 | CNC[C@H](O)c1ccc(O)c(O)c1 [epinephrine] | positive chronotropy |  | 60 to 90 | re-initiated spontaneous contractions
